Reference: patent US11691989B2, “Macrocyclic indoles as Mcl-1 inhibitors” (ASCENTAGE PHARMA (SUZHOU) CO., LTD., priority 2018, dated 2023)

How the values were obtained:
NCI-H929 cells = experiment: Cell viability assay (NCI-H929 cells), CCK-8; type: cell-based; conditions: 5% FBS
Method: Cell Viability Assay (NCI-H929 cells)
NCI-H929 cells were obtained from American Type Culture Collection (ATCC). Cells were maintained in the recommended culture medium (RPMI 1640) with 10% FBS and 0.05 mM BME at 37° C. and an atmosphere of 5% CO2.
The effect of Compounds on cell viability was determined using Cell Counting Kit-8 (CCK-8) assay according to the manufacturer's instructions. 95 μL of NCI-H929 cell suspension (20000 cells/well) in culture medium were seeded into 96-well plates and cultured 4 hrs. Each tested compound was serially diluted in DMSO, then 5 μL of the compound or DMSO was diluted in 95 μL medium once more. At last, 5 μL of the compound dilution was added to the corresponding well of the cell plate. After the addition of the tested compound, the cells were incubated at 37° C. in an atmosphere of 5% CO2 for 24 hrs. At the end, 10 μL of CCK-8 solution was added to each well of the plate and incubated for 1-4 hours. The plates were read at 450 nm on the microplate reader (BioTek Synergy 1MF). The readings were normalized to the vehicle cells, and the IC50 was calculated by nonlinear regression analysis using GraphPad Prism 6 software.

[1] = target: Mcl-1 protein (residues 171-323) (Homo sapiens (Human), UniProt Q07820); experiment: Inhibition of Mcl-1 by fluorescence polarization (FP) competitive binding assay with FAM-Bid tracer; conditions: 2 nM FAM-Bid, 20 nM Mcl-1, 30 min, read-out: Mc1-1 (FP)
Chain of Mcl-1 protein (residues 171-323) (Q07820 171-323): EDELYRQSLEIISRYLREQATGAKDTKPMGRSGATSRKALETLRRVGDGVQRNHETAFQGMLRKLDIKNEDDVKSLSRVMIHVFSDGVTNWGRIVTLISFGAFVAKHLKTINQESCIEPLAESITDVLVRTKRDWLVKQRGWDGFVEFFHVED
Method: Inhibition of Mcl-1 by fluorescence polarization (FP) assay.
The method used a fluorescein labelled peptide (FAM-Bid) which binds to the Mcl-1 protein leading to an increased anisotropy measured in milli-polarization (mP) values using a plate reader.
A 10-points serial dilution of each compound was prepared in DMSO and 5 μL solution was transferred into flat bottomed, 96-well back plate (final DMSO concentration 5%). 120 μL of Buffer (PBS, 0.01% BGG (Sigma Cat. #SRE0011), 0.01% Triton X-100), containing the Fluorescein labelled peptide (Final concentration 2 nM) and Mcl-1 protein (final concentration 20 nM) was then added. […] 10-points dose response curves were plotted with GraphPad software using Sigmoidal Dose-Response Model and the IC50 values were determined by nonlinear regression fitting of the competition curves.

OPM-2 cells = experiment: Cell viability assay (OPM-2 cells), CCK-8; type: cell-based; conditions: 5% FBS
Method: Cell Viability Assay (OPM-2 cells)
OPM-2 cells were obtained from Deutsche Sammlung von Mikroorganismen and Zellkulturen GmbH (DSMZ). Cells were maintained in the recommended culture medium with 10% FBS at 37° C. and an atmosphere of 5% CO2.
The effect of representative Compounds of the Disclosure on cell viability was determined using Cell Counting Kit-8 (CCK-8) assay (Shanghai Life iLab Bio Technology) according to the manufacturer's instructions. Each tested compound was serially diluted in culture medium, 100 μL of the compound dilution was added into 96-well plates. 100 μL of an OPM-2 cell suspension (20000 cells/well) in culture medium were seeded into the corresponding well of the plate and the cells were incubated at 37° C. in an atmosphere of 5% CO2 for 24 hours. In the next day, 20 μL of CCK-8 solution was added to each well of the plate and incubated for 4 hours.
The plates were read at 450 nm on the microplate spectrophotometer (SpectraMax plus 384, Molecular devices). The readings were normalized to the vehicle cells, and the IC50 was calculated by nonlinear regression analysis using GraphPad Prism 6 software.

Cc1c(C(=O)O)n2c3ccc(Cl)c(c13)-c1c(nn(C)c1C)CN(S(=O)(=O)c1ccn(C)n1)Cc1cc(n(C)n1)CSc1cc(c3ccc(F)cc3c1)OCCC2 [Cpd. No. 37, (Z)-1^5-chloro-9^6-fluoro-1^3,2^1,2^5,6^1-tetramethyl-4#1-methyl-1H-pyrazol-3-yl))sulfonyl)-1^1H,2^1H,6^1H-10-oxa-8-thia-4-aza-1(4,1)-indola-2(4,3),6(3,5)-dipyrazola-9(3,1)-naphthalenacyclotridecaphane-1^2-carboxylic acid]
IC50 (NCI-H929 cells; Homo sapiens, NCI-H929, 24 h): 1500 nM
IC50 [1]: 29 nM
IC50 (OPM-2 cells; Homo sapiens, OPM-2, 24 h): 3160 nM

COCCn1nc(C)c2c1CSCc1cc(n(C)n1)CSc1cc(c3ccccc3c1)OCCCn1c(C(=O)O)c(C)c3c-2c(Cl)ccc31 [Cpd. No. 27, (Z)-1^5-chloro-2^1-(2-methoxyethyl)-1^3,2^3,6^1-trimethyl-1^1H,2^1H,6^1H-10-oxa-4,8-dithia-1(4,1)-indola-2(4,5),6(3,5)-dipyrazola-9(3,1)-naphthalenacyclotridecaphane-1^2-carboxylic acid]
IC50 (NCI-H929 cells; Homo sapiens, NCI-H929, 24 h): 285 nM
IC50 [1]: 15 nM
IC50 (OPM-2 cells; Homo sapiens, OPM-2, 24 h): 258 nM

Cc1c(C(=O)O)n2c3ccc(F)c(c13)-c1c(nn(C)c1C)CSCc1cc(n(C)n1)CSc1cc(c3ccc(F)cc3c1)OCCC2 [Cpd. No. 21, (Z)-1^5,9^6-difluoro-1^3,2^1,2^5,6^1-tetramethyl-1^1H,2^1H,6^1H-10-oxa-4,8-dithia-1(4,1)-indola-2(4,3), 6(3,5)-dipyrazola-9(3,1)-naphthalenacyclotridecaphane-1^2-carboxylic acid]
IC50 (NCI-H929 cells; Homo sapiens, NCI-H929, 24 h): 170 nM
IC50 [1]: 10 nM
IC50 (OPM-2 cells; Homo sapiens, OPM-2, 24 h): 223 nM

Cc1c(C(=O)O)n2c3ccc(Cl)c(c13)-c1c(nn(C)c1C)CN(S(=O)(=O)C(F)(F)F)Cc1cc(n(C)n1)CSc1cc(c3ccccc3c1)OCCC2 [Cpd. No. 47, (Z)-1^5-chloro-1^3,2^1,2^5,6^1-tetramethyl-4-((trifluoromethyl)sulfonyl)-1^1H,2^1H,6^1H-10-oxa-8-thia-4-aza-1(4,1)-indola-2(4,3),6(3,5)-dipyrazola-9(3,1)-naphthalenacyclotridecaphane-1^2-carboxylic acid]
IC50 (NCI-H929 cells; Homo sapiens, NCI-H929, 24 h): 170 nM
IC50 [1]: 5 nM
IC50 (OPM-2 cells; Homo sapiens, OPM-2, 24 h): 229 nM

CNC(=O)Cn1nc2c(c1C)-c1c(Cl)ccc3c1c(C)c(C(=O)O)n3CCCOc1cc(cc3ccccc13)SCc1cc(nn1C)CSC2 [Cpd. No. 10, (Z)-1^5-chloro-1^3,2^5,6^1-trimethyl-2^1-(2-(methylamino)-2-oxoethyl)-1^1H,2^1H,6^1H-10-oxa-4,8-dithia-1(4,1)-indola-2(4,3),6(3,5)-dipyrazola-9(3,1)-naphthalenacyclotridecaphane-1^2-carboxylic acid]
IC50 (NCI-H929 cells; Homo sapiens, NCI-H929, 24 h): 1850 nM
IC50 [1]: 4 nM
IC50 (OPM-2 cells; Homo sapiens, OPM-2, 24 h): 4110 nM

Cc1c(C(=O)O)n2c3ccc(Cl)c(c13)-c1c(nn(C)c1C)CN(S(=O)(=O)N(C)C)Cc1cc(n(C)n1)CSc1cc(c3ccc(F)cc3c1)OCCC2 [Cpd. No. 40, (Z)-1^5-chloro-9^6-fluoro-1^3,2^1,2^5,6^1-tetramethyl-4-(N, N-dimethylsulfamoyl)-1^1H,2^1H,6^1H-10-oxa-8-thia-4-aza-1 (4,1)-indola-2(4,3),6(3,5)-dipyrazola-9(3,1)-naphthalenacyclotridecaphane-1^2-carboxylic acid]
IC50 (NCI-H929 cells; Homo sapiens, NCI-H929, 24 h): 159 nM
IC50 [1]: 13 nM
IC50 (OPM-2 cells; Homo sapiens, OPM-2, 24 h): 190 nM

Cc1c2c(nn1C)CSCc1cc(n(C)n1)CSc1cc(c3ccc(F)cc3c1)OCCCn1c(C(=O)O)cc3c-2c(Cl)ccc31 [Cpd. No. 13, (Z)-1^5-chloro-9^6-fluoro-2^1,2^5,6^1-trimethyl-1^1H,2^1H,6^1E-10-oxa-4,8-dithia-1(4,1)-indola-2(4,3),6(3,5)-dipyrazola-9(3,1)-naphthalenacyclotridecaphane-1^2-carboxylic acid]
IC50 (NCI-H929 cells; Homo sapiens, NCI-H929, 24 h): 180 nM
IC50 (OPM-2 cells; Homo sapiens, OPM-2, 24 h): 649 nM

Cc1c(C(=O)O)n2c3ccc(Cl)c(c13)-c1c(nn(C)c1C)CN(C(=O)c1ccccn1)Cc1cc(n(C)n1)CSc1cc(c3ccc(F)cc3c1)OCCC2 [Cpd. No. 42, (Z)-1^5-chloro-9^6-fluoro-1^3,2^1,2^5,6^1-tetramethyl-4-picolinoyl-1^1H,2^1H,6^1H-10-oxa-8-thia-4-aza-1 (4,1)-indola-2(4,3),6(3,5)-dipyrazola-9(3,1)-naphthalenacyclotridecaphane-1^2-carboxylic acid]
IC50 (NCI-H929 cells; Homo sapiens, NCI-H929, 24 h): 768 nM
IC50 [1]: 22 nM
IC50 (OPM-2 cells; Homo sapiens, OPM-2, 24 h): 1510 nM

Cc1c(C(=O)O)n2c3ccc(Cl)c(c13)-c1c(nn3c1COCC3)CN(S(C)(=O)=O)Cc1cc(n(C)n1)CSc1cc(c3ccc(F)cc3c1)OCCC2 [Cpd. No. 30, (Z)-1^5-chloro-9^6-fluoro-4-(isopropylsulfonyl)-1^3, 6^1-di methyl-2^6,2^7-dihydro-1^1H,2^4H,6^1H-10-oxa-8-thia-4-aza-2(3,2)-pyrazolo[5,1-c][1,4]oxazina-1(4,1)-indola-6(3,5)-pyrazola-9(3,1)-naphthalenacyclotridecaphane-1^2-carboxylic acid]
IC50 (NCI-H929 cells; Homo sapiens, NCI-H929, 24 h): 1850 nM
IC50 [1]: 17 nM
IC50 (OPM-2 cells; Homo sapiens, OPM-2, 24 h): 5240 nM

Cc1c(C(=O)O)n2c3ccc(Cl)c(c13)-c1c(nn(C)c1C)CN(S(=O)(=O)c1cnn(C)c1)Cc1cc(n(C)n1)CSc1cc(c3ccc(F)cc3c1)OCCC2 [Cpd. No. 36, (Z)-1^5-chloro-9^6-fluoro-1^3,2^1,2^5,6^1-tetramethyl-4#1-methyl-1H-pyrazol-4-yl)sulfonyl)-1^1H,2^1H,6^1H-10-oxa-8-thia-4-aza-1(4,1)-indola-2(4,3),6(3,5)-dipyrazola-9(3,1)-naphthalenacyclotridecaphane-1^2-carboxylic acid]
IC50 (NCI-H929 cells; Homo sapiens, NCI-H929, 24 h): 696 nM
IC50 [1]: 27 nM
IC50 (OPM-2 cells; Homo sapiens, OPM-2, 24 h): 2020 nM

(Z)-1^5-chloro-9^6-fluoro-1^3,2^1,2^3,6^1-tetramehtyl-4-(methylsulfonyl)-1^1H,2^1H,6^1H-10-oxa-8-thia-4-aza-1(4,1)-indola-2(4,5),6(3,5)-dipyrazola-9(3,1)- naphthalenacyclotridecaphane-1^2-carboxylic acid [Cpd. No. 49]
IC50 (NCI-H929 cells; 24 hrs): 204 nM
IC50 [1]: 5 nM
IC50 (OPM-2 cells; 24 hours): 308 nM

Cc1c2c(nn1C)CSCc1cc(n(C)n1)CSc1cc(c3ccc(F)cc3c1)OCCCn1c(C(=O)O)c(F)c3c-2c(Cl)ccc31 [Cpd. No. 19, (Z)-1^5-chloro-1^3,9^6-difluoro-2^1,2^5,6^1-trimethyl-1^1H,2^1H,6^1H-10-oxa-4,8-dithia-1(4,1)-indola-2(4,3),6(3,5)-dipyrazola-9(3,1)-naphthalenacyclotridecaphane-1^2-carboxylic acid]
IC50 (NCI-H929 cells; Homo sapiens, NCI-H929, 24 h): 444 nM
IC50 [1]: 10 nM
IC50 (OPM-2 cells; Homo sapiens, OPM-2, 24 h): 449 nM

Cc1c(C(=O)O)n2c3ccc(Cl)c(c13)-c1c(nn(C)c1C)CN(C(=O)c1ncco1)Cc1cc(n(C)n1)CSc1cc(c3ccc(F)cc3c1)OCCC2 [Cpd. No. 43, (Z)-1^5-chloro-9^6-fluoro-1^3,2^1,2^5,6^1-tetramethyl-4-(oxazole-2-carbonyl)-1^1H,2^1H,6^1H-10-oxa-8-thia-4-aza-1(4,1)-indola-2(4,3),6(3,5)-dipyrazola-9(3,1)-naphthalenacyclotridecaphane-1^2-carboxylic acid]
IC50 (NCI-H929 cells; Homo sapiens, NCI-H929, 24 h): 613 nM
IC50 [1]: 22 nM
IC50 (OPM-2 cells; Homo sapiens, OPM-2, 24 h): 1250 nM

Cc1nn(C)c2c1-c1c(Cl)ccc3c1c(C)c(C(=O)O)n3CCCOc1cc(cc3ccccc13)SCc1cc(nn1C)CN(S(C)(=O)=O)C2 [Cpd. No. 48, (Z)-1^5-chloro-1^3,2^1,2^3,6^1-tetramethyl-4-(methylsulfonyl)-1^1H,2^1H,6^1H-10-oxa-8-thia-4-aza-1(4,1)-indola-2(4,5),6(3,5)-dipyrazola-9(3,1)-naphthalenacyclotridecaphane-1^2-carboxylic acid]
IC50 (NCI-H929 cells; Homo sapiens, NCI-H929, 24 h): 243 nM
IC50 [1]: 12 nM
IC50 (OPM-2 cells; Homo sapiens, OPM-2, 24 h): 587 nM
